Experimental data as given in PubChem BioAssay AID248 (DTP/NCI, 2004).
“And” between values parts separate entries of the source, which are not always exact repeats. Equal values may be shown once. Inconclusive results and toxic doses are left out.

Test system: L1210 leukemia ip in BDF1 mice, survival T/C
Experiment: NCI In Vivo Anticancer Drug Screen. Data for tumor model L1210 Leukemia (intraperitoneal) in B6D2F1 (BDF1) mice
Settings: endpoint: mean survival time, higher = longer survival
Outline: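 Transplantable tumor model; survival measured in treated vs vehicle control mice. Value = treated/control.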

[1] = dose: 50.0 mg/kg/injection, schedule: Q01DX001 (ip), vehicle: saline
[2] = dose: 100.0 mg/kg/injection, schedule: Q01DX001 (ip), vehicle: saline
[3] = dose: 200.0 mg/kg/injection, schedule: Q01DX001 (ip), vehicle: saline
[4] = dose: 400.0 mg/kg/injection, schedule: Q01DX001 (ip), vehicle: saline
[5] = dose: 50.0 mg/kg/injection, schedule: Q01DX009 (ip), vehicle: saline with Tween-80
[6] = dose: 100.0 mg/kg/injection, schedule: Q04DX003 (ip), vehicle: saline with Tween-80
[7] = dose: 200.0 mg/kg/injection, schedule: Q04DX003 (ip), vehicle: saline with Tween-80
[8] = dose: 400.0 mg/kg/injection, schedule: Q04DX003 (ip), vehicle: saline with Tween-80
[9] = dose: 50.0 mg/kg/injection, schedule: Q01DX009 (ip), vehicle: saline
[10] = dose: 75.0 mg/kg/injection, schedule: Q01DX001 (ip), vehicle: saline
[11] = dose: 100.0 mg/kg/injection, schedule: Q01DX009 (ip), vehicle: saline
[12] = dose: 100.0 mg/kg/injection, schedule: Q04DX002 (ip), vehicle: saline
[13] = dose: 200.0 mg/kg/injection, schedule: Q04DX002 (ip), vehicle: saline
[14] = dose: 100.0 mg/kg/injection, schedule: Q01DX001 (ip), vehicle: saline with Tween-80
[15] = dose: 200.0 mg/kg/injection, schedule: Q01DX001 (ip), vehicle: saline with Tween-80
[16] = dose: 400.0 mg/kg/injection, schedule: Q01DX001 (ip), vehicle: saline with Tween-80
[17] = dose: 100.0 mg/kg/injection, schedule: Q01DX001 (ip), vehicle: carboxymethylcellulose (CMC)
[18] = dose: 200.0 mg/kg/injection, schedule: Q01DX001 (ip), vehicle: carboxymethylcellulose (CMC)
[19] = dose: 400.0 mg/kg/injection, schedule: Q01DX001 (ip), vehicle: carboxymethylcellulose (CMC)
[20] = dose: 100.0 mg/kg/injection, schedule: Q04DX003 (ip), vehicle: saline
[21] = dose: 200.0 mg/kg/injection, schedule: Q04DX003 (ip), vehicle: saline
[22] = dose: 400.0 mg/kg/injection, schedule: Q04DX003 (ip), vehicle: saline

## CC(C)(C)OC(=O)C(c1ccccc1)c1ccccc1
[1]
  T/C: 106 % of control
[2]
  T/C: 89 % of control
[3]
  T/C: 106 % of control
[4]
  T/C: 89 % of control

## CP1CCC(O)(C(C)(C)C)CC1 (stereo not drawn)
dose: 75.0 mg/kg/injection, schedule: Q01DX001 (ip), vehicle: other
  T/C: 101 % of control
dose: 150.0 mg/kg/injection, schedule: Q01DX001 (ip), vehicle: other
  T/C: 91 % of control

## CCC(Cl)COP(=O)(OCC(Cl)CC)C(OP(=S)(OCC(Cl)CC)OCC(Cl)CC)c1ccc(Cl)c(Cl)c1 (stereo not drawn)
dose: 25.0 mg/kg/injection, schedule: Q04DX002 (sc), vehicle: olive oil, sesame oil, peanut oil
  T/C: 123 % of control
dose: 50.0 mg/kg/injection, schedule: Q04DX002 (sc), vehicle: olive oil, sesame oil, peanut oil
  T/C: 108 % of control
dose: 100.0 mg/kg/injection, schedule: Q04DX002 (sc), vehicle: olive oil, sesame oil, peanut oil
  T/C: 118 % of control

## CCCCC(c1nc2c(c3c1CCCC3)CCCC2)C(O)(C(F)(F)F)C(F)(F)F (stereo not drawn)
dose: 25.0 mg/kg/injection, schedule: Q01DX009 (ip), vehicle: saline with Tween-80
  T/C: 102 % of control
[5]
  T/C: 104 % of control
dose: 100.0 mg/kg/injection, schedule: Q01DX009 (ip), vehicle: saline with Tween-80
  T/C: 93 % of control and 87 % of control
[6]
  T/C: 97 % of control
dose: 200.0 mg/kg/injection, schedule: Q01DX009 (ip), vehicle: saline with Tween-80
  T/C: 89 % of control
[7]
  T/C: 100 % of control
[8]
  T/C: 102 % of control

## C=C(Br)CN(C)C
[5]
  T/C: 117 % of control
[6]
  T/C: 96 % of control
[7]
  T/C: 102 % of control

## CCCCCCCCCCNCCC(=O)O
dose: 12.5 mg/kg/injection, schedule: Q01DX001 (ip), vehicle: saline
  T/C: 94 % of control
dose: 25.0 mg/kg/injection, schedule: Q01DX001 (ip), vehicle: saline
  T/C: 94 % of control
dose: 25.0 mg/kg/injection, schedule: Q01DX009 (ip), vehicle: saline
  T/C: 104 % of control
dose: 37.5 mg/kg/injection, schedule: Q01DX009 (ip), vehicle: saline
  T/C: 104 % of control
[1]
  T/C: 100 % of control
[9]
  T/C: 102 % of control
[10]
  T/C: 101 % of control
dose: 75.0 mg/kg/injection, schedule: Q01DX009 (ip), vehicle: saline
  T/C: 88 % of control
[2]
  T/C: 101 % of control
[11]
  T/C: 104 % of control
dose: 150.0 mg/kg/injection, schedule: Q01DX001 (ip), vehicle: saline
  T/C: 94 % of control

## CCCCOc1ccc(CC(N)C(=O)O)cc1N(CCCl)CCCl (stereo not drawn)
dose: 6.6 mg/kg/injection, schedule: Q01DX001 (ip), vehicle: carboxymethylcellulose (CMC)
  T/C: 111 % of control
dose: 10.0 mg/kg/injection, schedule: Q01DX001 (ip), vehicle: carboxymethylcellulose (CMC)
  T/C: 116 % of control
dose: 10.0 mg/kg/injection, schedule: Q01DX001 (ip), vehicle: saline
  T/C: 122 % of control
dose: 30.0 mg/kg/injection, schedule: Q01DX001 (ip), vehicle: saline
  T/C: 107 % of control
dose: 60.0 mg/kg/injection, schedule: Q01DX001 (ip), vehicle: saline
  T/C: 102 % of control
dose: 90.0 mg/kg/injection, schedule: Q01DX001 (ip), vehicle: saline
  T/C: 101 % of control

## COC(=O)C([CH2][Sn]([c]1ccccc1)([c]1ccccc1)[c]1ccccc1)NC(=O)Cc1ccccc1 (stereo not drawn)
[9]
  T/C: 96 % of control
[11]
  T/C: 100 % of control
dose: 200.0 mg/kg/injection, schedule: Q01DX009 (ip), vehicle: saline
  T/C: 100 % of control

## NC(=O)NN=C(CCl)CCl
[12]
  T/C: 100 % of control
[13]
  T/C: 91 % of control

## CC1CN1C1=C(F)C(=O)C(N2CC2C)=C(F)C1=O (stereo not drawn)
dose: 0.19 mg/kg/injection, schedule: Q01DX009 (ip), vehicle: Klucel (hydroxypropylcellulose) (HPC)
  T/C: 105 % of control
dose: 0.39 mg/kg/injection, schedule: Q01DX009 (ip), vehicle: Klucel (hydroxypropylcellulose) (HPC)
  T/C: 104 % of control
dose: 0.78 mg/kg/injection, schedule: Q01DX009 (ip), vehicle: Klucel (hydroxypropylcellulose) (HPC)
  T/C: 102 % of control
dose: 0.78 mg/kg/injection, schedule: Q04DX003 (ip), vehicle: Klucel (hydroxypropylcellulose) (HPC)
  T/C: 103 % of control
dose: 1.56 mg/kg/injection, schedule: Q01DX009 (ip), vehicle: Klucel (hydroxypropylcellulose) (HPC)
  T/C: 100 % of control
dose: 1.56 mg/kg/injection, schedule: Q04DX003 (ip), vehicle: Klucel (hydroxypropylcellulose) (HPC)
  T/C: 105 % of control
dose: 3.12 mg/kg/injection, schedule: Q01DX009 (ip), vehicle: Klucel (hydroxypropylcellulose) (HPC)
  T/C: 100 % of control
dose: 3.12 mg/kg/injection, schedule: Q04DX003 (ip), vehicle: Klucel (hydroxypropylcellulose) (HPC)
  T/C: 101 % of control
dose: 4.6 mg/kg/injection, schedule: Q01DX009 (ip), vehicle: Klucel (hydroxypropylcellulose) (HPC)
  T/C: 103 % of control

## Nc1nc2c(ncn2-c2ccccc2Cl)c(=O)[nH]1
[14]
  T/C: 95 % of control
[15]
  T/C: 92 % of control
[16]
  T/C: 100 % of control

## CNS(=O)(=O)c1cccc(C(N)=S)c1
[14]
  T/C: 105 % of control
[15]
  T/C: 100 % of control
[16]
  T/C: 100 % of control

## FCCSc1ncnc2nc[nH]c12
dose: 20.0 mg/kg/injection, schedule: Q04DX003 (ip), vehicle: saline with Tween-80
  T/C: 113 % of control
dose: 29.5 mg/kg/injection, schedule: Q04DX003 (ip), vehicle: saline with Tween-80
  T/C: 116 % of control
[6]
  T/C: 159 % of control

## Cc1coc(NS(=O)(=O)c2ccc(N=Nc3c(N)n(C)c(=O)n(C)c3=O)cc2)c1C
[17]
  T/C: 98 % of control
[18]
  T/C: 95 % of control
[19]
  T/C: 98 % of control

## ClCCCSc1ccccc1
[2]
  T/C: 96 % of control and 111 % of control
[3]
  T/C: 96 % of control and 98 % of control
[4]
  T/C: 97 % of control and 98 % of control

## CCO/C=N/N(C)c1n[n+]([O-])ccc1C
[12]
  T/C: 110 % of control
[13]
  T/C: 104 % of control
dose: 400.0 mg/kg/injection, schedule: Q04DX002 (ip), vehicle: saline
  T/C: 101 % of control

## O=C1c2ccccc2-c2cc(Br)cc(Br)c21
[17]
  T/C: 93 % of control
[18]
  T/C: 98 % of control
[19]
  T/C: 98 % of control

## O=C(O)c1cccc2cccc(-c3c4ccc(=O)c(O)c-4oc4c(O)c(O)ccc34)c12
[6]
  T/C: 91 % of control
[7]
  T/C: 92 % of control
[8]
  T/C: 89 % of control

## CCCCS(=O)(=O)N1CC(C)OC(C)C1 (stereo not drawn)
dose: 100.0 mg/kg/injection, schedule: Q04DX002 (ip), vehicle: Klucel (hydroxypropylcellulose) (HPC)
  T/C: 97 % of control
dose: 200.0 mg/kg/injection, schedule: Q04DX002 (ip), vehicle: Klucel (hydroxypropylcellulose) (HPC)
  T/C: 108 % of control
dose: 400.0 mg/kg/injection, schedule: Q04DX002 (ip), vehicle: Klucel (hydroxypropylcellulose) (HPC)
  T/C: 97 % of control

## COCCN1CCC(C)(CO)C1 (stereo not drawn)
[20]
  T/C: 87 % of control
[21]
  T/C: 93 % of control
[22]
  T/C: 92 % of control

## CC(=O)Nc1ccccc1I
dose: 100.0 mg/kg/injection, schedule: Q01DX009 (ip), vehicle: Klucel (hydroxypropylcellulose) (HPC)
  T/C: 104 % of control
dose: 200.0 mg/kg/injection, schedule: Q01DX009 (ip), vehicle: Klucel (hydroxypropylcellulose) (HPC)
  T/C: 96 % of control
dose: 400.0 mg/kg/injection, schedule: Q01DX009 (ip), vehicle: Klucel (hydroxypropylcellulose) (HPC)
  T/C: 95 % of control

## CN(C)c1cc(O)ccc1[N+](=O)[O-]
[20]
  T/C: 103 % of control
[21]
  T/C: 95 % of control
[22]
  T/C: 100 % of control

## COC(=O)C1CCC[N+](C)(C)C1 (stereo not drawn)
dose: 25.0 mg/kg/injection, schedule: Q04DX003 (ip), vehicle: saline
  T/C: 95 % of control
dose: 50.0 mg/kg/injection, schedule: Q04DX003 (ip), vehicle: saline
  T/C: 97 % of control
[20]
  T/C: 94 % of control

## O=[As](O)(c1cccc(Cl)c1)c1cccc(Cl)c1
[10]
  T/C: 105 % of control

## CC(=O)c1ccc(N=NC2C(=O)N(c3ccccc3)N=C2C)cc1 (stereo not drawn)
[2]
  T/C: 96 % of control
[3]
  T/C: 94 % of control
[4]
  T/C: 102 % of control

## CC(F)C1CCCC(F)C1 (stereo not drawn)
[2]
  T/C: 103 % of control
[3]
  T/C: 100 % of control
[4]
  T/C: 105 % of control

## O=S(=O)(Cc1ccccc1)Cc1ccccc1
[1]
  T/C: 101 % of control
[2]
  T/C: 95 % of control
[6]
  T/C: 96 % of control
[3]
  T/C: 95 % of control
[7]
  T/C: 100 % of control
[4]
  T/C: 91 % of control
[8]
  T/C: 100 % of control
